Source: the NIST ThermoML archive (doi:10.1021/acs.jced.9b00209)

Tests used:
[1] = 101.33 kPa, Liquid, Pycnometric method
[2] = Boiling temperature at pressure P; conditions: Liquid, Ebulliometric method (Recirculating still)
[3] = molar heat capacity at saturation pressure; conditions: Liquid, Vacuum adiabatic calorimetry

CC(C)CCOC(=O)C(C)O (configuration not stated) [isopentyl 2-hydroxypropanoate]
Conditions	Boiling temperature at pressure P [°C]	mass density [kg/m3]	molar heat capacity [J/K/mol]
[1], 288.15 K	–	976	–
[1], 293.65 K	–	973.5	–
[1], 298.15 K	–	969.5	–
[1], 303.15 K	–	965	–
[1], 308.15 K	–	960.6	–
[1], 315.65 K	–	954.9	–
[1], 320.15 K	–	950	–
[1], 326.15 K	–	945.3	–
[1], 331.65 K	–	939.8	–
[1], 336.15 K	–	937.8	–
[1], 341.45 K	–	931.1	–
[1], 346.15 K	–	928	–
[1], 350.95 K	–	922.7	–
[1], 355.65 K	–	917	–
[1], 361.65 K	–	913.2	–
[1], 367.15 K	–	908	–
[1], 373.15 K	–	903	–
[1], 378.45 K	–	898.3	–
[1], 383.45 K	–	893	–
[1], 390.65 K	–	887.5	–
[1], 397.15 K	–	883.1	–
[1], 404.35 K	–	876.4	–
[1], 410.85 K	–	869.6	–
[1], 417.05 K	–	864.7	–
[1], 420.45 K	–	861	–
[1], 424.75 K	–	854.7	–
[1], 428.15 K	–	854.2	–
[1], 434.25 K	–	848.9	–
[1], 441.75 K	–	842.2	–
[1], 448.55 K	–	836	–
[1], 453.15 K	–	832	–
[2], 4.5 kPa	101.44	–	–
[2], 8.6 kPa	118.64	–	–
[2], 13.8 kPa	131.41	–	–
[2], 18.4 kPa	139.2	–	–
[2], 22.8 kPa	146.61	–	–
[2], 27.9 kPa	153.00	–	–
[2], 33.2 kPa	158.40	–	–
[2], 38.6 kPa	163.80	–	–
[2], 42.9 kPa	168.23	–	–
[2], 48.2 kPa	171.66	–	–
[2], 52.3 kPa	174.60	–	–
[2], 57.6 kPa	178.1	–	–
[2], 62.3 kPa	182.00	–	–
[2], 69.2 kPa	186.00	–	–
[2], 72.7 kPa	188.32	–	–
[2], 77 kPa	190.7	–	–
[2], 82 kPa	192.98	–	–
[2], 87.2 kPa	195.31	–	–
[2], 91.4 kPa	197.64	–	–
[2], 95.7 kPa	199.20	–	–
[2], 100.7 kPa	201.00	–	–
[2], 110.3 kPa	205.41	–	–
[3], 288.15 K	–	–	360.71
[3], 293.65 K	–	–	362.52
[3], 298.15 K	–	–	364.02
[3], 303.55 K	–	–	365.85
[3], 308.95 K	–	–	367.71
[3], 313.65 K	–	–	369.34
[3], 318.45 K	–	–	371.04
[3], 323.65 K	–	–	372.9
[3], 328.25 K	–	–	374.56
[3], 333.85 K	–	–	376.6
[3], 338.75 K	–	–	378.4
[3], 343.05 K	–	–	380
[3], 348.55 K	–	–	382.06
[3], 353.15 K	–	–	383.8
[3], 358.45 K	–	–	385.81
[3], 363.35 K	–	–	387.69
[3], 368.05 K	–	–	389.51
[3], 373.75 K	–	–	391.72
[3], 378.85 K	–	–	393.72
[3], 383.35 K	–	–	395.5
[3], 388.65 K	–	–	397.6
[3], 393.25 K	–	–	399.44
[3], 398.45 K	–	–	401.54
[3], 403.15 K	–	–	403.44
[3], 408.65 K	–	–	405.69
[3], 413.15 K	–	–	407.54
[3], 418.85 K	–	–	409.91
[3], 423.95 K	–	–	412.04
[3], 428.45 K	–	–	413.94
[3], 433.15 K	–	–	415.95
[3], 438.55 K	–	–	418.27
[3], 443.65 K	–	–	420.49
[3], 448.15 K	–	–	422.47
[3], 453.65 K	–	–	424.92
